Test results: patent US11578130B2, “Regulatable chimeric antigen receptor” (Novartis AG, priority 2013, dated 2023)

Experiments:
Type in all cases: in vivo, human
[1] = Clinical trial in elderly volunteers: adverse events, safety and tolerability
[2] = system: PD-1-positive CD4, CD8 and PD-1-negative CD4 T cells; assay: FACS analysis of PBMC for PD-1-positive and PD-1-negative T cells after RAD001 treatment; details: adjusted for differences in baseline PD-1 expression; for decrease in PD-1-positive CD8 T cells: pooled RAD001 cohort compared to placebo cohort
[3] = Clinical trial: energy and exercise questionnaires one year after dosing; details: 0.5 mg daily dosing cohort
[4] = system: A/H1N1/California/07/2009; assay: Clinical trial: serum IgG and IgM specific for A/H1N1/California/07/2009; details: RAD001 versus placebo treated cohorts
Experimental: Levels of IgG and IgM specific for the A/H1N1/California/07/2009 were measured in serum samples taken before and 4 weeks after influenza vaccination as described previously (Spensieri, F. et al. (2013) Proc. Natl. Acad. Sci. USA 110:14330-14335). Results were expressed as fluorescence intensity.

H3N2 A/Victoria/210/2009 = assay: Clinical trial: hemagglutination inhibition titers and seroconversion, vaccine strain A/H3N2
Experimental: The trial was observer-blind because the placebo in the RAD001 0.5 mg daily and 20 mg weekly cohorts differed slightly from the RAD001 tablets in those cohorts. […] The treatment duration for all cohorts was 6 weeks during which time subjects underwent safety evaluations in the clinic every 2 weeks. After subjects had been dosed for 4 weeks, RAD001 steady state levels were measured pre-dose and at one hour post dose. After completing the 6 week course of study drug, subjects were given a 2 week drug free break to reverse any possible RAD001-induced immunosuppression, and then were given a 2012 seasonal influenza vaccination (Agrippal®, Novartis Vaccines and Diagnostics, Siena, Italy) containing the strains H1N1 A/California/07/2009, H3N2 A/Victoria/210/2009, B/Brisbane/60/2008. Four weeks after influenza vaccination, subjects had serum collected for influenza titer measurements. Antibody titers to the 3 influenza vaccine strains as well as to 2 heterologous strains (A/H1N1 strain A/New Jersey/8/76 and A/H3N2 strain A/Victoria/361/11) were measured by standard hemagglutination inhibition assay (Kendal, A P et al. (1982) Concepts and procedures for laboratory-based influenza surveillance. Atlanta: Centers for Disease Control and Prevention B17-B35).
The ability of RAD001 to improve immune function in elderly volunteers was evaluated by measuring the serologic response to the 2012 seasonal influenza vaccine. The hemagglutination inhibition (HI) geometric mean titers (GMT) to each of the 3 influenza vaccine strains at baseline and 4 weeks after influenza vaccination are provided in Table 22. The primary analysis variable was the HI GMT ratio (4 weeks post vaccination/baseline). […] This endpoint was chosen because a 1.2-fold increase in the influenza GMT ratio induced by the MF-59 vaccine adjuvant was associated with a decrease in influenza illness (Iob, A et al. (2005) Epidemiol Infect 133:687-693).
Rates of seroconversion 4 weeks after influenza vaccination were also evaluated. Seroconversion was defined as the change from a negative pre-vaccination titer (i.e., HI titer <1:10) to post-vaccination HI titer ≥1:40 or at least 4-fold increase from a non-negative (≥1:10) pre-vaccination HI titer.

## CO[C@H]1C[C@@H]2CC[C@@H](C)[C@@](O)(O2)C(=O)C(=O)N2CCCC[C@H]2C(=O)O[C@H]([C@H](C)C[C@@H]2CC[C@@H](OCCO)[C@H](OC)C2)CC(=O)[C@H](C)/C=C(\C)[C@@H](O)[C@@H](OC)C(=O)[C@H](C)C[C@H](C)/C=C/C=C/C=C/1C [RAD001, (1R,9S,12S,15R,16E,18R,19R,21R,23S,24E,26E,28E,30S,32S,35R)-1,18-dihydroxy-12-{(1R)-2-[(1S,3R,4R)-4-(2-hydroxyethoxy)-3-methoxycyclohexyl]-1-methylethyl}-19,30-dimethoxy-15,17,21,23,29,35-hexamethyl-11,36-dioxa-4-aza-tricyclo[30.3.1.04,9]hexatriaconta-16,24,26,28-tetraene-2,3,10,14,20-pentaone]
[1]; RAD001 5 mg weekly, N = 53
  Thrombocytopenia, treatment-related AE: 0 n (%)
  Tongue ulceration, treatment-related AE: 1 (1.9%) n (%)
  Total AE(s), treatment-related: 46 n (%)
  Urinary tract infection, treatment-related AE: 0 n (%)
[1]; RAD001 20 mg weekly, N = 53
  Blood cholesterol increased, treatment-related AE: 2 (3.8%) n (%)
  Conjunctivitis, treatment-related AE: 0 n (%)
  Diarrhea, treatment-related AE: 1 (1.9%) n (%)
  Dry mouth, treatment-related AE: 2 (3.8%) n (%)
  Dyspepsia, treatment-related AE: 2 (3.8%) n (%)
  Erythema, treatment-related AE: 0 n (%)
  Fatigue, treatment-related AE: 4 (7.5%) n (%)
  Headache, treatment-related AE: 9 (17.0%) n (%)
  Insomnia, treatment-related AE: 1 (1.9%) n (%)
  Limb discomfort, treatment-related AE: 0 n (%)
  Low density lipoprotein increased, treatment-related AE: 2 (3.8%) n (%)
  Mouth ulceration, treatment-related AE: 9 (17.0%) n (%)
  Mucosal inflammation, treatment-related AE: 2 (3.8%) n (%)
  Neutropenia, treatment-related AE: 3 (5.7%) n (%)
  Oral pain, treatment-related AE: 1 (1.9%) n (%)
  Paresthesia oral, treatment-related AE: 0 n (%)
  Patients with AE(s), treatment-related: 27 (50.9%) n (%)
  Pruritus, treatment-related AE: 1 (1.9%) n (%)
  Stomatitis, treatment-related AE: 2 (3.8%) n (%)
  Thrombocytopenia, treatment-related AE: 2 (3.8%) n (%)
  Tongue ulceration, treatment-related AE: 0 n (%)
  Total AE(s), treatment-related: 109 n (%)
  Urinary tract infection, treatment-related AE: 2 (3.8%) n (%)
[1]; elderly volunteers, 6 weeks, particularly 0.5 mg daily and 5 mg weekly dosing regimens
  tolerability: well tolerated
[1]; subject treated with 20 mg weekly RAD001
  number of severe AEs assessed as related to RAD001 (mouth ulcers): one
[2]; week 6
  decrease in PD-1-positive CD8 T cells: 37.4%
[2]; week 6, pooled RAD cohort compared to placebo cohort
  decrease in PD-1+ CD4 T cells: 30.2%
[2]; week 12
  decrease in PD-1-positive CD8 T cells: 41.4%
[2]; week 12, pooled RAD cohort compared to placebo cohort
  decrease in PD-1-positive CD4 T cells: 32.7%
[3]
  self-reported energy and exercise ability compared to placebo: increased energy and exercise ability
[4]
  post-vaccination anti-influenza IgM and IgG levels: did not differ
H3N2 A/Victoria/210/2009; Baseline (2 weeks prior to influenza vaccination), RAD001 0.5 mg daily, N = 50
  HI GMT, A/H3N2: 106.8
H3N2 A/Victoria/210/2009; Baseline (2 weeks prior to influenza vaccination), RAD001 5 mg weekly, N = 49
  HI GMT, A/H3N2: 126.04
H3N2 A/Victoria/210/2009; Baseline (2 weeks prior to influenza vaccination), RAD001 20 mg weekly, N = 49
  HI GMT, A/H3N2: 137.1
H3N2 A/Victoria/210/2009; Intention to Treat Population, 0.5 mg, N = 48
  Percent of subjects with seroconversion to influenza 4 weeks after vaccination, H3N2: 27%
H3N2 A/Victoria/210/2009; Intention to Treat Population, 5 mg, N = 49
  Percent of subjects with seroconversion to influenza 4 weeks after vaccination, H3N2: 24%
H3N2 A/Victoria/210/2009; Intention to Treat Population, 20 mg, N = 48
  Percent of subjects with seroconversion to influenza 4 weeks after vaccination, H3N2: 25%
H3N2 A/Victoria/210/2009; RAD001 0.5 mg daily, N = 50
  GMT ratio (week 4 post vaccination/baseline), A/H3N2: 2.1
H3N2 A/Victoria/210/2009; RAD001 5 mg weekly, N = 49
  GMT ratio (week 4 post vaccination/baseline), A/H3N2: 2.0
H3N2 A/Victoria/210/2009; RAD001 20 mg weekly, N = 49
  GMT ratio (week 4 post vaccination/baseline), A/H3N2: 2.1
H3N2 A/Victoria/210/2009; Subjects with Baseline Titers <=40, 0.5 mg
  Percent of subjects with seroconversion to influenza 4 weeks after vaccination, H3N2: 64%
H3N2 A/Victoria/210/2009; Subjects with Baseline Titers <=40, 5 mg
  Percent of subjects with seroconversion to influenza 4 weeks after vaccination, H3N2: 53%
H3N2 A/Victoria/210/2009; Subjects with Baseline Titers <=40, 20 mg
  Percent of subjects with seroconversion to influenza 4 weeks after vaccination, H3N2: 71%
H3N2 A/Victoria/210/2009; Week 4 after influenza vaccination, RAD001 0.5 mg daily, N = 50
  HI GMT, A/H3N2: 194.4
H3N2 A/Victoria/210/2009; Week 4 after influenza vaccination, RAD001 5 mg weekly, N = 49
  HI GMT, A/H3N2: 223.0
H3N2 A/Victoria/210/2009; Week 4 after influenza vaccination, RAD001 20 mg weekly, N = 49
  HI GMT, A/H3N2: 223.0
